# Test results as given in patent US20210196654A1, “METHOD OF TREATING CONDITIONS” (Clexio Biosciences Ltd., priority 2019, published 2021).
# Tests used:
# Sprague Dawley rats = test: Repeated dose 28 day toxicity study; assay type: in vivo, rat; details: 28 days oral gavage
# [1] = Repeated dose 28 day toxicokinetics; details: for AUC(0-inf) / AUC(0-t) / Cmax / half-life / Tmax: Sprague Dawley, rat, in vivo, po; for AUC(0-t): AUC0-t
# Procedure: The objective of the study was to assess the potential toxicity, neurobehavioral effects, and toxicokinetics (TK) of esketamine when administered orally, via gavage, to Sprague Dawley rats for 28 days and to evaluate recovery during a 14-day drug-free period. Fifty male and 50 female rats were randomized into 4 groups (15/sex/Groups 1 and 4; 10/sex/Groups 2 and 3). Esketamine was administered via oral gavage once daily for 28 consecutive days to males at 0 (vehicle control), 6, 10 or 30 mg/kg/day and females at 0 (vehicle control), 2, 10 or 20 mg/kg/day in a dose volume of 10 mL/kg. Animals were observed until euthanized and necropsied on Day 29 (10/sex/group) or 43 (5/sex from Groups 1 and 4). Toxicity was evaluated based on mortality, clinical observations, body weights, food consumption, ophthalmology, motor activity, functional observational battery, clinical pathology (clinical chemistry, hematology, coagulation and urinalysis), organ weights, anatomic (macroscopic or microscopic) pathology. Toxicokinetic animals (3/sex/Group 1; 6/sex/Groups 2, 3, and 4) were similarly dosed and bled on Day 1 and during Week 4 for toxicokinetic analysis.
# male Sprague Dawley rats = test: 7-day forced swim test; assay type: in vivo, rat; details: for decrease in immobility time: 7 daily doses, test 30 min after dosing
# Procedure: Groups of, 6-7 week old, male Sprague Dawley rats were administered esketamine by intraperitoneal injection and their behavioral despair assessed by a forced swim test. The animals, in cohorts of 10, were administered either a single dose of 15mg/kg esketamine, 7 daily doses of either 7.5 or 15 mg/kg esketamine or a vehicle control, and the test performed 30 minutes after dosing. Statistical evaluation was performed using an ordinary One-Way ANOVA, t Test and an Uncorrected Fisher's LSD comparisons test.
# [2] = Single dose crossover study in healthy volunteers, pharmacokinetics; details: both, human, plasma; for AUC(0-inf): AUC0-inf; for AUC(0-inf) / AUC(0-t) / Cmax: geometric mean; for AUC(0-t): AUC0-t; for Cmax: 15 subjects; for half-life: t1/2, geometric mean; for Tmax: median
# From the text: A randomized, open-label 4-way crossover study in 16 healthy male and female subjects was held wherein said subjects were placed in a randomly assigned order and administered esketamine. Each subject was assigned to 1 of 4 treatment sequences according to a randomization code such that 4 subjects were assigned to each treatment sequence. There was a wash-out period of at least 7 days between dosing periods with doses consisting of either oral or intravenous esketamine hydrochloride. The study consisted of an eligibility screening period of 28 days, 4 study periods involving administration of a single dose of esketamine hydrochloride followed by safety assessments with blood sampling for PK purposes up to 72 hours after study drug administration, discharge at 72 hours after study drug administration and a follow-up visit 7-14 days after the last PK blood sample was taken on Day 4.
# NMDA receptor = details: Ebert et al (1997); cited from earlier work
# [3] = Oye et al (1992); cited from earlier work
# liver of Crl:CD(SD) rats = test: In vivo single cell gel electrophoresis (comet) assay in liver; details: for lower benchmark dose (BMDL50): single slide median Tail Intensity, PROAST
# [4] = female, 2 mg/kg, Day 1, female rats, 2 mg/kg oral
# [5] = female, 2 mg/kg, Day 28, female rats, 2 mg/kg oral
# [6] = female, 10 mg/kg, Day 1, female rats, 10 mg/kg oral
# [7] = female, 10 mg/kg, Day 28, female rats, 10 mg/kg oral
# [8] = female, 20 mg/kg, Day 1, female rats, 20 mg/kg oral
# [9] = female, 20 mg/kg, Day 28, female rats, 20 mg/kg oral
# [10] = male, 6 mg/kg, Day 1, male rats, 6 mg/kg oral
# [11] = male, 6 mg/kg, Day 28, male rats, 6 mg/kg oral
# [12] = male, 10 mg/kg, Day 1, male rats, 10 mg/kg oral
# [13] = male, 10 mg/kg, Day 28, male rats, 10 mg/kg oral
# [14] = male, 30 mg/kg, Day 1, male rats, 30 mg/kg oral
# [15] = male, 30 mg/kg, Day 28, male rats, 30 mg/kg oral
# [16] = iv, 0.3 mg/kg, plasma analyte after single dose esketamine 0.3 mg/kg iv
# [17] = po, 20 mg, plasma analyte after single dose esketamine 20 mg oral solution
# [18] = po, 20 mg, plasma analyte after single dose esketamine 20 mg oral tablet
# [19] = po, 100 mg, plasma analyte after single dose esketamine 100 mg oral tablet
smiles,measurement,setting,value
"CN[C@]1(c2ccccc2Cl)CCCCC1=O [esketamine, (2S)-2-(2-Chlorophenyl)-2-(methylamino) cyclohexanone]","effects on clinical signs, body weights, food consumption, ophthalmology, motor activity, functional observational battery, clinical pathology or anatomic pathology",Sprague Dawley rats,no esketamine -related effects
same,mortality,"Sprague Dawley rats; males 6, 10, 30, females 2, 10, 20 mg/kg/day",no mortality
same,Dose normalized AUC0-inf,"[1]; Day 1, female rats, 2 mg/kg oral",29.0 (ng*h/ml)/(mg/kg)
same,Dose normalized AUC0-inf,"[1]; Day 1, female rats, 10 mg/kg oral",44.0 (ng*h/ml)/(mg/kg)
same,Dose normalized AUC0-inf,"[1]; Day 1, female rats, 20 mg/kg oral",49.8 (ng*h/ml)/(mg/kg)
same,Dose normalized AUC0-inf,"[1]; Day 1, male rats, 6 mg/kg oral",17.2 (ng*h/ml)/(mg/kg)
same,Dose normalized AUC0-inf,"[1]; Day 1, male rats, 10 mg/kg oral",18.1 (ng*h/ml)/(mg/kg)
same,Dose normalized AUC0-inf,"[1]; Day 1, male rats, 30 mg/kg oral",19.5 (ng*h/ml)/(mg/kg)
same,Dose normalized AUC0-t,"[1]; Day 28, female rats, 2 mg/kg oral",31.0 (ng*h/ml)/(mg/kg)
same,Dose normalized AUC0-t,"[1]; Day 28, female rats, 10 mg/kg oral",51.3 (ng*h/ml)/(mg/kg)
same,Dose normalized AUC0-t,"[1]; Day 28, female rats, 20 mg/kg oral",53.2 (ng*h/ml)/(mg/kg)
same,Dose normalized AUC0-t,"[1]; Day 28, male rats, 6 mg/kg oral",10.2 (ng*h/ml)/(mg/kg)
same,Dose normalized AUC0-t,"[1]; Day 28, male rats, 10 mg/kg oral",17.9 (ng*h/ml)/(mg/kg)
same,Dose normalized AUC0-t,"[1]; Day 28, male rats, 30 mg/kg oral",19.2 (ng*h/ml)/(mg/kg)
same,sex difference in exposure,[1]; after normalization for dose level differences,males had lower exposures than females
same,AUC(0-inf),"[1]; female, 2 mg/kg",58 ng·h/mL
same,AUC(0-t),[1]; [4],57 ng·h/mL
same,AUC(0-t),[1]; [5],62 ng·h/mL
same,Cmax,[1]; [4],67.2 ng/mL
same,Cmax,[1]; [5],133 ng/mL
same,half-life,"[1]; female, 2 mg/kg, t1/2, Day 1, female rats, 2 mg/kg oral",30 min
same,Tmax,[1]; [4],10.2 min
same,Tmax,[1]; [5],10.2 min
same,AUC(0-inf),"[1]; female, 10 mg/kg",440 ng·h/mL
same,AUC(0-t),[1]; [6],418 ng·h/mL
same,AUC(0-t),[1]; [7],514 ng·h/mL
same,Cmax,[1]; [6],295 ng/mL
same,Cmax,[1]; [7],768 ng/mL
same,half-life,"[1]; female, 10 mg/kg, t1/2, Day 1, female rats, 10 mg/kg oral",42 min
same,half-life,"[1]; female, 10 mg/kg, t1/2, Day 28, female rats, 10 mg/kg oral",24 min
same,Tmax,[1]; [6],10.2 min
same,Tmax,[1]; [7],10.2 min
same,AUC(0-inf),"[1]; female, 20 mg/kg",995 ng·h/mL
same,AUC(0-t),[1]; [8],993 ng·h/mL
same,AUC(0-t),[1]; [9],1060 ng·h/mL
same,Cmax,[1]; [8],672 ng/mL
same,Cmax,[1]; [9],1450 ng/mL
same,half-life,"[1]; female, 20 mg/kg, t1/2, Day 1, female rats, 20 mg/kg oral",54 min
same,half-life,"[1]; female, 20 mg/kg, t1/2, Day 28, female rats, 20 mg/kg oral",36 min
same,Tmax,[1]; [8],10.2 min
same,Tmax,[1]; [9],10.2 min
same,Cmax Day 28 vs Day 1,[1]; females,higher on Day 28
same,exposure increase with dose,"[1]; females, 2 to 20 mg/kg/day",slightly greater than dose-proportional
same,AUC(0-inf),"[1]; male, 6 mg/kg",103 ng·h/mL
same,AUC(0-t),[1]; [10],99 ng·h/mL
same,AUC(0-t),[1]; [11],61 ng·h/mL
same,Cmax,[1]; [10],109 ng/mL
same,Cmax,[1]; [11],113 ng/mL
same,half-life,"[1]; male, 6 mg/kg, t1/2, Day 1, male rats, 6 mg/kg oral",48 min
same,half-life,"[1]; male, 6 mg/kg, t1/2, Day 28, male rats, 6 mg/kg oral",36 min
same,Tmax,[1]; [10],10.2 min
same,Tmax,[1]; [11],10.2 min
same,AUC(0-inf),"[1]; male, 10 mg/kg",181 ng·h/mL
same,AUC(0-t),[1]; [12],175 ng·h/mL
same,AUC(0-t),[1]; [13],179 ng·h/mL
same,Cmax,[1]; [12],179 ng/mL
same,Cmax,[1]; [13],211 ng/mL
same,half-life,"[1]; male, 10 mg/kg, t1/2, Day 1, male rats, 10 mg/kg oral",42 min
same,half-life,"[1]; male, 10 mg/kg, t1/2, Day 28, male rats, 10 mg/kg oral",36 min
same,Tmax,[1]; [12],10.2 min
same,Tmax,[1]; [13],10.2 min
same,AUC(0-inf),"[1]; male, 30 mg/kg",585 ng·h/mL
same,AUC(0-t),[1]; [14],580 ng·h/mL
same,AUC(0-t),[1]; [15],575 ng·h/mL
same,Cmax,[1]; [14],296 ng/mL
same,Cmax,[1]; [15],398 ng/mL
same,half-life,"[1]; male, 30 mg/kg, t1/2, Day 1, male rats, 30 mg/kg oral",72 min
same,half-life,"[1]; male, 30 mg/kg, t1/2, Day 28, male rats, 30 mg/kg oral",90 min
same,Tmax,[1]; [14],10.2 min
same,Tmax,[1]; [15],30 min
same,exposure increase with dose,"[1]; males, 6 to 30 mg/kg/day",generally dose-proportional
same,decrease in immobility time,male Sprague Dawley rats; 7.5 mg/kg ip,40%
same,decrease in immobility time,male Sprague Dawley rats; 15 mg/kg ip,60%
same,extent of effect on immobility time,"male Sprague Dawley rats; 15 mg/kg ip, single acute dose",42 % of control
same,"antidepressant-like effect, continuous 7-day treatment vs single dose",male Sprague Dawley rats; same dose levels,stronger antidepressant-like effect than a single acute dose
same,AUC(0-inf),[2]; [16],257 ng·h/mL
same,AUC(0-t),[2]; [16],249 ng·h/mL
same,Cmax,[2]; [16],94.5 ng/mL
same,half-life,[2]; [16],610 min
same,Tmax,[2]; [16],60 min
same,AUC(0-inf),[2]; [17],25.8 ng·h/mL
same,AUC(0-inf),[2]; [18],22.5 ng·h/mL
same,AUC(0-t),[2]; [17],23.4 ng·h/mL
same,AUC(0-t),[2]; [18],20.1 ng·h/mL
same,Cmax,[2]; [17],16.5 ng/mL
same,Cmax,[2]; [18],11.9 ng/mL
same,half-life,[2]; [17],175 min
same,half-life,[2]; [18],170 min
same,Tmax,[2]; [17],30 min
same,Tmax,[2]; [18],45 min
same,AUC(0-inf),[2]; [19],181 ng·h/mL
same,AUC(0-t),[2]; [19],173 ng·h/mL
same,Cmax,[2]; [19],65.3 ng/mL
same,half-life,[2]; [19],460 min
same,Tmax,[2]; [19],45 min
same,affinity for the NMDA receptor relative to (R)-ketamine,NMDA receptor,5 times
same,potency relative to (R)-ketamine in reducing pain perception and in causing auditory and visual disturbances,[3],4 times
same,macroscopic examination,liver of Crl:CD(SD) rats; after 3 doses,no test item related lesions
same,group mean and median % TI values vs historical control range,"liver of Crl:CD(SD) rats; female rats, 25 and 50 mg/kg/day",outside of the current vehicle historical control range
same,median % TI in liver vs vehicle control,"liver of Crl:CD(SD) rats; female rats, 25 and 50 mg/kg/day oral, 3 doses, p<0.001",Statistically significant increases
same,lower benchmark dose (BMDL50),liver of Crl:CD(SD) rats; female rats,9.83 mg/kg/day
same,"DNA strand breaks in the liver, conclusion","liver of Crl:CD(SD) rats; male and female rats, oral gavage",evidence of causing an increase in DNA strand breaks
same,Hedgehog cells in liver,"liver of Crl:CD(SD) rats; male or female rats, any dose level",No Hedgehog cells were observed
same,group mean and median % TI values vs historical control range,"liver of Crl:CD(SD) rats; male rats, 75 mg/kg/day",outside of the current vehicle historical control range
same,median % tail intensity (TI) in liver vs vehicle control,"liver of Crl:CD(SD) rats; male rats, 75 mg/kg/day oral, 3 doses, p<0.001",Statistically significant increases
same,lower benchmark dose (BMDL50),liver of Crl:CD(SD) rats; male rats,27.31 mg/kg/day
same,liver histopathological examination,"liver of Crl:CD(SD) rats; some male animals, 75 mg/kg/day",Increased hepatocellular mitotic figures
